Measurements as given in publication PMC10913730, “Antimicrobial activity of a natural compound and analogs against multi-drug-resistant Gram-positive pathogens” (Microbiology Spectrum, 2024).
In brackets after ≈: the same amount, converted by molar mass. Like-named read-outs stand apart in the source and are kept apart here.

Legend:
[1] = system: MRSA isolates; assay: MIC/MBC, CLSI broth microdilution, MRSA isolates; format: cell-based, Staphylococcus aureus; conditions: Staphylococcus aureus
[2] = system: MRSA isolate TCH 1516; assay: Resistance acquisition during serial passage; format: cell-based, Staphylococcus aureus
Description: MRSA isolate TCH 1516 was grown to the stationary phase (OD650 = 1.0) in 10 mL of MH broth. […] The second highest drug concentration resulting in bacterial growth (OD650 >1.0) was used as the inoculum after a 1:1,000 dilution for subsequent steps, every 24 hours, for up to 21 days.

[3] = pH and Ka of 10-g/L aqueous solutions (pH meter); format: physicochemical; conditions: 10-g/L solution in distilled, deionized water, room temperature
[4] = 39 evaluated MRSA isolates, CLSI broth microdilution, read-out: MBC90
[5] = 39 evaluated MRSA isolates, CLSI broth microdilution, read-out: MIC90
[6] = MRSA, pH 7.4, MRSA 0606, pH 7.4
[7] = MRSA, pH 7.4, MRSA 0608, pH 7.4
[8] = MRSA, pH 7.4, MRSA 0634, pH 7.4
[9] = MRSA, pH 7.4, MRSA 0641, pH 7.4
[10] = MRSA, pH 7.4, MRSA 0646, pH 7.4

| Structure (SMILES) | MBC [1, 4] | MIC90 [1, 5] | MIC ([2]; Staphylococcus aureus, MRSA, 408 h, read-out: MIC after serial passage) | increase in MIC ([2]; serial passage, after 17 days) | pH of solution [3] | MIC90 ([1]; MRSA, 39 evaluated MRSA isolates, CLSI broth microdilution) | MBC [1, 6] | MIC [1, 6] | MBC [1, 7] | MIC [1, 7] | MBC [1, 8] | MIC [1, 8] | MBC [1, 9] | MIC [1, 9] | MBC [1, 10] | MIC [1, 10] | MBC ([1]; MRSA, pH 7.4, TCH 1516, pH 7.4) | MIC ([1]; MRSA, pH 7.4, TCH 1516, pH 7.4) | MBC ([1]; MRSA, read-out: MBC90, 39 evaluated MRSA isolates, CLSI broth microdilution) |
| --- | --- | --- | --- | --- | --- | --- | --- | --- | --- | --- | --- | --- | --- | --- | --- | --- | --- | --- | --- |
| CCC[C@@H]1C[C@@H](C(=O)N[C@@H]([C@H]2O[C@H](SC)[C@H](O)[C@@H](O)[C@H]2O)[C@H](C)Cl)N(C)C1 [Clindamycin, clindamycin, reference compound] | > 32 µg/mL | > 32 µg/mL | 32 µg/mL (≈ 75.3 µM) | 256 fold | – | – | – | – | – | – | – | – | – | – | – | – | – | – | – |
| CCCCCCCCCC(=O)N[C@@H](Cc1c[nH]c2ccccc12)C(=O)N[C@H](CC(N)=O)C(=O)N[C@@H](CC(=O)O)C(=O)N[C@@H]1C(=O)NCC(=O)N[C@@H](CCCN)C(=O)N[C@@H](CC(=O)O)C(=O)N[C@H](C)C(=O)N[C@@H](CC(=O)O)C(=O)NCC(=O)N[C@H](CO)C(=O)N[C@@H]([C@H](C)CC(=O)O)C(=O)N[C@@H](CC(=O)c2ccccc2N)C(=O)O[C@@H]1C [Daptomycin, daptomycin, reference compound] | 2 µg/mL (≈ 1.23 µM) | 2 µg/mL (≈ 1.23 µM) | – | – | – | – | – | – | – | – | – | – | – | – | – | – | – | – | – |
| [K+].[K+].[O-]c1c(Cl)cc(Cl)cc1-c1cc(Cl)cc(Cl)c1[O-] [C59K] | – | – | – | – | greater than 10 | 2 µg/mL | 6 µg/mL | 2 µg/mL | 4 µg/mL | 4 µg/mL | 6 µg/mL | 2 µg/mL | 4 µg/mL | 2 µg/mL | 4 µg/mL | 2 µg/mL | 4 µg/mL | 2 µg/mL | 4 µg/mL |
